Test: Stability of folic acid in 0.1 M NaOH (HPLC)
Assay type: physicochemical
Settings: 25 °C, protected from light, 144 hours (6 days)

Nc1nc2ncc(CNc3ccc(C(=O)N[C@@H](CCC(=O)O)C(=O)O)cc3)nc2c(=O)[nH]1 [folic acid, pteroyl-L-glutamic acid]
decomposition of folic acid: did not undergo to decomposition

From patent publication EP3940071A1, “5-METHYLFOLATE PRODUCING MICROORGANISM” (Chifeng Pharmaceutical Co., Ltd, priority 2020, dated 2022)
